In patent publication US20260355196A1, “INHIBITORS AND DEGRADERS OF PIP4K PROTEIN” (Larkspur Biosciences, Inc., priority 2023, published 2026):

These compounds were tested against T1, PIP4K2C (Homo sapiens, UniProt Q8TBX8) (assay: HiBiT PIP4K2C degradation assay in MOLT-4 cells (endogenous PIP4K2C C-terminally tagged with HiBiT)). Conditions: 6 hours of incubation time, rather than 24 hours; MOLT-4, top concentration 10 micromolar; read-out: HiBIT-degradation MOLT4 PIP4k2C DC50 (6 hours, marked *).
T1 sequence (Q8TBX8 1-421): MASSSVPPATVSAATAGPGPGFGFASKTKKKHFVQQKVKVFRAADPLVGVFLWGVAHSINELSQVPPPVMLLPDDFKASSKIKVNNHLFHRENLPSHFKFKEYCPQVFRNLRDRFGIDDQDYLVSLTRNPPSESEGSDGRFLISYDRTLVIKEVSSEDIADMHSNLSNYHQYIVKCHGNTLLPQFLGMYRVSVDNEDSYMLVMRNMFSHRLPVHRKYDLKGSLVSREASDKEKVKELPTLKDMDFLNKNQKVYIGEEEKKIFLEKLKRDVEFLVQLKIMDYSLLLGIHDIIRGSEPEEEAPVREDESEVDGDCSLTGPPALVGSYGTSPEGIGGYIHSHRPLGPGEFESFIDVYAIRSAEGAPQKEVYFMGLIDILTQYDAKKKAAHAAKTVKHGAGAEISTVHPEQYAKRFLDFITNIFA
Format: cell-based
Design: untagged in primary human PBMCs and monocyte-derived dendritic cells
Method in brief: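 Luminescent HiBiT lytic readout of residual PIP4K2C-HiBiT (CRISPR knock-in, MOLT-4, phenol red-free RPMI-1640 + 10% FBS). Cells exposed 6 or 24 h at 37 C to compound, top 10 micromolar, 3-fold, 10 points, duplicate. Hill fit (Levenberg-Marquardt) gives DC50.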

DC50 [µM] | Structure (SMILES)
< 0.5 | O=C1CCC(n2c(=O)oc3cc(C4CCN(CCC5CCN(C(=O)[C@@H]6CCC[C@H](Nc7ncc(F)c(-c8cccc(-n9ccccc9=O)c8)n7)C6)CC5)CC4)ccc32)C(=O)N1 (stereo partly drawn) [Compound 350, 3-(6-(1-(2-(1-((1R,3S)-3-((5-fluoro-4-(3-(2-oxopyridin-1(2H)-yl)phenyl)pyrimidin-2-yl)amino)cyclohexane-1-carbonyl)piperidin-4-yl)ethyl)piperidin-4-yl)-2-oxobenzo[d]oxazol-3 (2H)-yl)piperidine-2,6-dione]

Same assay, conditions: 24 hours incubation, MOLT-4, top concentration 10 micromolar; read-out: HiBIT-degradation MOLT4 PIP4k2C 24 hours DC50

Structure (SMILES) | DC50 [µM]
Cn1nc(N2CCC(=O)NC2=O)c2ccc(C3CCN(CC(=O)N4CCC(O)(C(=O)N5CCC(Nc6ncc(F)c(-c7cccc(-n8ccccc8=O)c7)n6)CC5)CC4)CC3)cc21 [Compound 346, 1-(6-(1-(2-(4-(4-((5-fluoro-4-(3-(2-oxopyridin-1(2H)-yl)phenyl)pyrimidin-2-yl)amino)piperidine-1-carbonyl)-4-hydroxypiperidin-1-yl)-2-oxoethyl)piperidin-4-yl)-1-methyl-1H-indazol-3-yl)dihydropyrimidine-2,4(1H,3H)-dione] | > 5
Cc1ccc(=O)n(-c2cccc(-c3nc(N[C@H]4CCC[C@@H](C(=O)N5CCC(CCN6CCC(c7ccc8c(c7)oc(=O)n8C7CCC(=O)NC7=O)CC6)CC5)C4)ncc3F)c2)c1 (stereo partly drawn) [Compound 354, 3-(6-(1-(2-(1-((1R,3S)-3-((5-fluoro-4-(3-(5-methyl-2-oxopyridin-1(2H)-yl)phenyl)pyrimidin-2-yl)amino)cyclohexane-1-carbonyl)piperidin-4-yl)ethyl)piperidin-4-yl)-2-oxobenzo[d]oxazol-3 (2H)-yl)piperidine-2,6-dione] | < 0.5
O=C1CCC(n2c(=O)oc3cc(C4CCN(CCC5CCN(C(=O)[C@@H]6CCC[C@H](Nc7ncc(F)c(-c8cccc(N9CCCOC9=O)c8)n7)C6)CC5)CC4)ccc32)C(=O)N1 (stereo partly drawn) [Compound 355, 3-(6-(1-(2-(1-((1R,3S)-3-((5-fluoro-4-(3-(2-oxo-1,3-oxazinan-3-yl)phenyl)pyrimidin-2-yl)amino)cyclohexane-1-carbonyl)piperidin-4-yl)ethyl)piperidin-4-yl)-2-oxobenzo[d]oxazol-3 (2H)-yl)piperidine-2,6-dione] | 0.5 to 1
O=C1CCC(n2c(=O)oc3cc(C4CCN(CCC5CCN(C(=O)[C@@H]6CCC[C@H](Nc7ncc(F)c(-c8cccc(N9CCCCC9=O)c8)n7)C6)CC5)CC4)ccc32)C(=O)N1 (stereo partly drawn) [Compound 356, 3-(6-(1-(2-(1-((1R,3S)-3-((5-fluoro-4-(3-(2-oxopiperidin-1-yl)phenyl)pyrimidin-2-yl)amino)cyclohexane-1-carbonyl)piperidin-4-yl)ethyl)piperidin-4-yl)-2-oxobenzo[d]oxazol-3 (2H)-yl)piperidine-2,6-dione] | < 0.5
O=C1CCC(n2c(=O)oc3cc(C4CCN(CCC5CCN(C(=O)[C@@H]6CCC[C@H](Nc7ncc(F)c(-c8cccc(-n9cc(C(F)(F)F)ccc9=O)c8)n7)C6)CC5)CC4)ccc32)C(=O)N1 (stereo partly drawn) [Compound 357, 3-(6-(1-(2-(1-((1R,3S)-3-((5-fluoro-4-(3-(2-oxo-5-(trifluoromethyl)pyridin-1(2H)-yl)phenyl)pyrimidin-2-yl)amino)cyclohexane-1-carbonyl)piperidin-4-yl)ethyl)piperidin-4-yl)-2-oxobenzo[d]oxazol-3 (2H)-yl)piperidine-2,6-dione] | < 0.5

Second part, the compound after the results:

DC50 [µM] | Structure (SMILES)
< 0.5 | O=C1CCC(n2c(=O)oc3cc(C4CCN(CC(=O)N5CCC(O)(C(=O)N6CCC(Nc7ncc(F)c(-c8cccc(-n9ccccc9=O)c8)n7)CC6)CC5)CC4)ccc32)C(=O)N1 (stereo not shown) [Compound 331, 3-(6-(1-(2-(4-(4-((5-fluoro-4-(3-(2-oxopyridin-1(2H)-yl)phenyl)pyrimidin-2-yl)amino)piperidine-1-carbonyl)-4-hydroxypiperidin-1-yl)-2-oxoethyl)piperidin-4-yl)-2-oxobenzo[d]oxazol-3 (2H)-yl)piperidine-2,6-dione]
< 0.5 | Cn1c(=O)n(C2CCC(=O)NC2=O)c2ccc(C3CCN(CCC4CCN(C(=O)[C@@H]5CCC[C@H](Nc6ncc(F)c(-c7cccc(-n8ccccc8=O)c7)n6)C5)CC4)CC3)cc21 (stereo partly drawn) [Compound 335, 3-(5-(1-(2-(1-((1R,3S)-3-((5-fluoro-4-(3-(2-oxopyridin-1(2H)-yl)phenyl)pyrimidin-2-yl)amino)cyclohexane-1-carbonyl)piperidin-4-yl)ethyl)piperidin-4-yl)-3-methyl-2-oxo-2,3-dihydro-1H-benzo[d]imidazol-1-yl)piperidine-2,6-dione]
< 0.5 | O=C1CCC(n2c(=O)oc3cc(N4CCN(CC5CCN(CC(=O)N[C@H]6CC[C@H](Nc7ncc(F)c(-c8cccc(-n9ccccc9=O)c8)n7)CC6)CC5)CC4)ccc32)C(=O)N1 (stereo partly drawn) [Compound 339, trans-2-(4-((4-(3-(2,6-dioxopiperidin-3-yl)-2-oxo-2,3-dihydrobenzo[d]oxazol-6-yl)piperazin-1-yl)methyl)piperidin-1-yl)-N-(4-((5-fluoro-4-(3-(2-oxopyridin-1(2H)-yl)phenyl)pyrimidin-2-yl)amino)cyclohexyl)acetamide]
< 0.5 | O=C1CCC(n2c(=O)oc3cc(N4CCN(CC5CCN(CC(=O)N6CCC(Nc7ncc(F)c(-c8cccc(-n9ccccc9=O)c8)n7)CC6)CC5)CC4)ccc32)C(=O)N1 (stereo not shown) [Compound 340, 3-(6-(4-((1-(2-(4-((5-fluoro-4-(3-(2-oxopyridin-1(2H)-yl)phenyl)pyrimidin-2-yl)amino)piperidin-1-yl)-2-oxoethyl)piperidin-4-yl)methyl)piperazin-1-yl)-2-oxobenzo[d]oxazol-3 (2H)-yl)piperidine-2,6-dione]
< 0.5 | O=C1CCC(Nc2ccc(N3CCN(CC4CCN(CC(=O)N5CCC(Nc6ncc(F)c(-c7cccc(-n8ccccc8=O)c7)n6)CC5)CC4)CC3)c(F)c2)C(=O)N1 (stereo not shown) [Compound 341, 3-((3-fluoro-4-(4-((1-(2-(4-((5-fluoro-4-(3-(2-oxopyridin-1(2H)-yl)phenyl)pyrimidin-2-yl)amino)piperidin-1-yl)-2-oxoethyl)piperidin-4-yl)methyl)piperazin-1-yl)phenyl)amino)piperidine-2,6-dione]
< 0.5 | O=C1CCC(Nc2ccc(C3CCN(C4CCN(CCC(=O)N5CCC(Nc6ncc(F)c(-c7cccc(-n8ccccc8=O)c7)n6)CC5)CC4)CC3)c(F)c2)C(=O)N1 (stereo not shown) [Compound 343, 3-((3-fluoro-4-(1′-(3-(4-((5-fluoro-4-(3-(2-oxopyridin-1(2H)-yl)phenyl)pyrimidin-2-yl)amino)piperidin-1-yl)-3-oxopropyl)-[1,4′-bipiperidin]-4-yl)phenyl)amino)piperidine-2,6-dione]
< 0.5 | Cn1nc(C2CCC(=O)NC2=O)c2ccc(C3CCN(CCC4CCN(C(=O)[C@@H]5CCC[C@H](Nc6ncc(F)c(-c7cccc(-n8ccccc8=O)c7)n6)C5)CC4)CC3)cc21 (stereo partly drawn) [Compound 351, 3-(6-(1-(2-(1-((1R,3S)-3-((5-fluoro-4-(3-(2-oxopyridin-1(2H)-yl)phenyl)pyrimidin-2-yl)amino)cyclohexane-1-carbonyl)piperidin-4-yl)ethyl)piperidin-4-yl)-1-methyl-1H-indazol-3-yl)piperidine-2,6-dione]
< 0.5 | O=C1CCC(n2c(=O)oc3cc(C4CCN(C5CCN(CCC(=O)N6CCC(Nc7ncc(F)c(-c8cccc(-n9ccccc9=O)c8)n7)CC6)CC5)CC4)ccc32)C(=O)N1 (stereo not shown) [Compound 353, 3-(6-(1′-(3-(4-((5-fluoro-4-(3-(2-oxopyridin-1(2H)-yl)phenyl)pyrimidin-2-yl)amino)piperidin-1-yl)-3-oxopropyl)-[1,4′-bipiperidin]-4-yl)-2-oxobenzo[d]oxazol-3 (2H)-yl)piperidine-2,6-dione]

Same assay, conditions: read-out: HiBIT-degradation MOLT4 PIP4k2C 24 hours DC50; 24 hours incubation, MOLT-4, top concentration 10 micromolar

DC50 [µM] | Structure (SMILES)
< 0.5 | Cn1c(=O)n(C2CCC(=O)NC2=O)c2ccc(N3CCC(N4CCC(C(=O)N[C@H]5CC[C@H](Nc6ncc(F)c(-c7cccc(-n8ccccc8=O)c7)n6)CC5)CC4)CC3)cc21 (stereo partly drawn) [Compound 344, trans-1′-(1-(2,6-dioxopiperidin-3-yl)-3-methyl-2-oxo-2,3-dihydro-1H-benzo[d]imidazol-5-yl)-N-(4-((5-fluoro-4-(3-(2-oxopyridin-1(2H)-yl)phenyl)pyrimidin-2-yl)amino)cyclohexyl)-[1,4′-bipiperidine]-4-carboxamide]

Same assay, conditions: read-out: HiBIT-degradation MOLT4 PIP4k2C DC50 (6 hours, marked *); 6 hours of incubation time, rather than 24 hours; MOLT-4, top concentration 10 micromolar

DC50 [µM] | Structure (SMILES)
< 0.5 | O=C1CCC(Nc2ccc(C3CCN([C@H]4CC[C@H](C(=O)N[C@H]5CC[C@H](Nc6ncc(F)c(-c7cccc(-n8ccccc8=O)c7)n6)CC5)CC4)CC3)c(F)c2)C(=O)N1 (stereo partly drawn) [Compound 345, trans-4-(4-(4-((2,6-dioxopiperidin-3-yl)amino)-2-fluorophenyl)piperidin-1-yl)-N-(trans-4-((5-fluoro-4-(3-(2-oxopyridin-1(2H)-yl)phenyl)pyrimidin-2-yl)amino)cyclohexyl)cyclohexane-1-carboxamide]
